# Assay results from ChEMBL document CHEMBL5055661, “Cell-Based Drug Discovery: Identification and Optimization of Small Molecules that Reduce c-MYC Protein Levels in Cells” (J Med Chem, 2021).
# Active and inactive are the calls of the source. No cut-off for these calls is given here.
# Experiments:
# [1] = Permeability of the compound across artificial membrane by AMP assay; type: ADME; conditions: PAMPA; read-out: permeability
# [2] = Reduction in cMyc expression in human COLO 320HSR cells incubated for 24 hrs by HTRF assay; type: functional, cell-based
# [3] = Half life in Han Wistar rat at 0.54 mg/kg, iv by LC-MS/MS analysis; type: ADME, organism-based; conditions: in vivo
# [4] = Clearance in Han Wistar rat at 0.54 mg/kg, iv by LC-MS/MS analysis; type: ADME, organism-based; conditions: in vivo
# [5] = Volume of distribution at steady state in Han Wistar rat at 0.54 mg/kg, iv by LC-MS/MS analysis; type: ADME, organism-based; conditions: in vivo, read-out: Vdss
# [6] = Plasma protein binding in Han Wistar rat at 2 mg/kg, po by LC-MS/MS analysis; type: ADME, organism-based; conditions: read-out: PPB (converted)
# [7] = Clearance in Han Wistar rat at 1 mg/kg, iv by LC-MS/MS analysis; type: ADME, organism-based; conditions: in vivo
# [8] = Clearance in CD1 mouse at 0.51 mg/kg, iv by LC-MS/MS analysis; type: ADME, organism-based; conditions: in vivo
# [9] = Oral bioavailability in CD1 mouse at 5 mg/kg by LC-MS/MS analysis; type: ADME, organism-based; conditions: in vivo
# [10] = AUC (0 to inf) in Han Wistar rat at 2 mg/kg, po by LC-MS/MS analysis; type: ADME, organism-based; design: time infinity, dose 2 mg/kg, route po; conditions: in vivo
# [11] = Cmax in Han Wistar rat at 2 mg/kg, po by LC-MS/MS analysis; type: ADME, organism-based; design: dose 2 mg/kg, route po; conditions: in vivo
# [12] = Volume of distribution at steady state in CD1 mouse at 0.51 mg/kg, iv by LC-MS/MS analysis; type: ADME, organism-based; conditions: in vivo, read-out: Vdss
# [13] = Half life in Han Wistar rat at 1 mg/kg, iv by LC-MS/MS analysis; type: ADME, organism-based; conditions: in vivo
# [14] = Plasma protein binding in CD1 mouse at 5 mg/kg, po by LC-MS/MS analysis; type: ADME, organism-based; conditions: read-out: PPB (converted)
# [15] = AUC (0 to inf) in CD1 mouse at 5 mg/kg, po by LC-MS/MS analysis; type: ADME, organism-based; design: time infinity, dose 5 mg/kg, route po; conditions: in vivo
# [16] = Cmax in CD1 mouse at 5 mg/kg, po by LC-MS/MS analysis; type: ADME, organism-based; design: dose 5 mg/kg, route po; conditions: in vivo
# [17] = Volume of distribution at steady state in Han Wistar rat at 1 mg/kg, iv by LC-MS/MS analysis; type: ADME, organism-based; conditions: in vivo, read-out: Vdss
# [18] = Half life in CD1 mouse at 0.51 mg/kg, iv by LC-MS/MS analysis; type: ADME, organism-based; conditions: in vivo
# [19] = Oral bioavailability in Han Wistar rat at 2 mg/kg by LC-MS/MS analysis; type: ADME, organism-based; conditions: in vivo
# [20] = Solubility by CLND assay; type: physicochemical
# [21] = Distribution coefficient, logD of the compound by chromatography; type: physicochemical; conditions: octanol/water
# [22] = Clearance in Han Wistar rat at 1.9 mg/kg, iv by LC-MS/MS analysis; type: ADME, organism-based; conditions: in vivo
# [23] = Volume of distribution at steady state in Han Wistar rat at 1.9 mg/kg, iv by LC-MS/MS analysis; type: ADME, organism-based; conditions: in vivo, read-out: Vdss
# [24] = Oral bioavailability in Han Wistar rat at 5.3 mg/kg by LC-MS/MS analysis; type: ADME, organism-based; conditions: in vivo
# [25] = Half life in Han Wistar rat at 1.9 mg/kg, iv by LC-MS/MS analysis; type: ADME, organism-based; conditions: in vivo
# [26] = AUC (0 to t) in Han Wistar rat at 5.3 mg/kg, po by LC-MS/MS analysis; type: ADME, organism-based; design: dose 5.3 mg/kg, route po; conditions: in vivo
# COLO-320-HSR [27] = experiment: Decrease in MYC mRNA level in human COLO 320HSR cells incubated for 6 hrs by qRT-PCR analysis; type: functional, cell-based
# COLO-320-HSR [28] = experiment: Decrease in c-MYC protein level in human COLO 320HSR cells incubated for 24 hrs by Western blot analysis; type: functional, cell-based
# COLO-320-HSR [29] = experiment: Effect on MCL-1 protein level in human COLO 320HSR cells incubated for 24 hrs by Western blot analysis; type: functional, cell-based
# [30] = Decrease in nascent MYC mRNA level in human COLO 320HSR cells at 2 uM incubated for 75 mins by qRT-PCR analysis; type: functional; conditions: 1.25 h
Structure (SMILES),EC50 [2] [nM],other results
CCNC(=O)c1cc(OC)c2c(c1)nc(-c1ccc(N3[C@@H](C)CC[C@@H]3C)nc1)n2C[C@@H]1CNCCO1,–,Papp [1]: 1.9 ×10⁻⁶ cm/s
CCN(CC)c1ccc(-c2nc3cc(C)ccc3n2Cc2ccn(CC)n2)cn1,631,–
CCN(CC)c1ccc(-c2nc3ccccc3n2CCOC)cn1,2510,–
CCN(CC)c1ccc(-c2cc3ccccc3n2Cc2ccn(CC)n2)cn1,7940,–
CCOCCn1c(-c2ccc(N3CCC[C@H]3C)nc2)nc2ccccc21,12600,–
CCn1ccc(Cn2c(-c3ccc(N4CCCC4C)nc3)nc3ccccc32)n1 (stereo not given),1580,–
CCCCn1c(-c2ccc(N(CC)CC)nc2)nc2ccccc21,12600,–
CCN(C)c1ccc(-c2nc3ccccc3n2Cc2ccn(CC)n2)cn1,3980,–
CCNc1ccc(-c2nc3ccccc3n2Cc2ccn(CC)n2)cn1,39800,–
CCN(CC)c1ccc(-c2nc3cc(C#N)ccc3n2Cc2ccn(CC)n2)cn1,1000,–
CCN(CC)c1ccc(-c2nc3ccccc3n2Cc2ccn(CC)n2)cn1,631,–
CCN(CC)c1ccc(-c2nc3ccccc3n2Cc2cccc(C)n2)cn1,2510,–
CNC(=O)c1cc(OC)c2c(c1)nc(-c1ccc(N3[C@@H](C)CC[C@@H]3C)nc1)n2C[C@@H]1CNCCO1,–,Papp [1]: 1.3 ×10⁻⁶ cm/s
CCn1ccc(Cn2c(-c3ccc(N4CCCC4)nc3)nc3ccccc32)n1,5010,–
CCCN(CC)c1ccc(-c2nc3ccccc3n2Cc2ccn(CC)n2)cn1,1580,–
CCN(CC)c1ccc(-c2nc3ccccc3n2Cc2coc(C)n2)cn1,501,–
CCN(CC)c1ccc(-c2nc3cccc(C#N)c3n2Cc2ccn(C)n2)cn1,2000,–
CCN(CC)c1ccc(-c2nc3ccccc3n2CCOC(C)(C)C)cn1,316,–
CNC(=O)c1cc(OC)c2c(c1)nc(-c1ccc(N3[C@@H](C)CC[C@@H]3C)nc1)n2C[C@@H]1CN(C)CCO1,–,Papp [1]: 22 ×10⁻⁶ cm/s
CCOCCn1c(-c2ccc(N(CC)CC)nc2)nc2ccccc21,398,–

Structure (SMILES),EC50 [2] [nM],other results
C[C@H]1CN(C)C[C@@H](Cn2c(-c3ccc(N4[C@@H](C)CC[C@@H]4C)nc3)nc3ccccc32)O1,1580,chromatographic logD [21]: 5.6
CCOCCn1c(-c2ccc(N3CCC[C@@H]3C)nc2)nc2ccccc21,1260,–
CCN(CC)c1ccc(-c2nc3cc(OC)ccc3n2Cc2ccn(CC)n2)cn1,794,–
CCc1ncc(Cn2c(-c3ccc(N(CC)CC)nc3)nc3ccccc32)o1,3160,–
CCN(CC)c1ccc(-c2nc3cccc(NC)c3n2Cc2ccn(C)n2)cn1,631,–
CCN(CC)c1ccc(-c2nc3c(C)cccc3n2Cc2ccn(CC)n2)cn1,316,–
CCN(CC)c1ccc(-c2nc3ccccc3n2CCc2ccn(CC)n2)cn1,25100,–
CCc1nc(Cn2c(-c3ccc(N(CC)CC)nc3)nc3ccccc32)cs1,1580,–
C[C@@H]1CN(C)C[C@H](Cn2c(-c3ccc(N4[C@@H](C)CC[C@@H]4C)nc3)nc3ccccc32)O1,20000,chromatographic logD [21]: 5.5
CCN(CC)c1ccc(-c2nc3ccccc3n2CCOC(C)C)cn1,251,–
CCN(CC)c1ccc(-c2nc3ccccc3n2Cc2ccn(CC)n2)cc1,25100,–
CCOc1cccc2nc(-c3ccc(N(CC)CC)nc3)n(Cc3ccn(C)n3)c12,398,–
CCN(CC)c1ccc(-c2nc3cccc(C)c3n2Cc2ccn(C)n2)cn1,1000,–
CCN(CC)c1ccc(-c2nc3cc(C(=O)N(C)C)ccc3n2CCOC(C)(C)C)cn1,3980,–
CCN(CC)c1ccc(-c2nc3ccccc3n2Cc2cc[nH]n2)cn1,2510,–
CCN(CC)c1ccc(-c2nc3c(C#N)cccc3n2Cc2ccn(CC)n2)cn1,1000,–
CCOCCn1c(-c2ccc(N3[C@H](C)CC[C@@H]3C)nc2)nc2ccccc21,2000,–
CCc1nc(Cn2c(-c3ccc(N(CC)CC)nc3)nc3ccccc32)co1,501,–
CCN(CC)c1ccc(-c2nc3c(C(N)=O)cccc3n2Cc2ccn(CC)n2)cn1,2000,–

# The remaining molecules from weak to strong by EC50 [2], led by results:
EC50 [2] [nM],Structure (SMILES),other results
251,CCN(CC)c1ccc(-c2nc3ccccc3n2Cc2ccn(C)n2)cn1,–
251,CCOCCn1c(-c2ccc(N3[C@@H](C)CC[C@@H]3C)nc2)nc2ccccc21,solubility kinetic [20]: 254 µM; Papp [1]: 54.5 ×10⁻⁶ cm/s; chromatographic logD [21]: 6.4
200,CCN(CC)c1ccc(-c2nc3c(Cl)cccc3n2Cc2ccn(CC)n2)cn1,–
200,CCN(CC)c1ccc(-c2nc3cc(C(=O)NCCO)ccc3n2CCOC(C)(C)C)cn1,–
158,COc1cccc2nc(-c3ccc(N4[C@@H](C)CC[C@@H]4C)nc3)n(C[C@@H]3CNC[C@H](C)O3)c12,chromatographic logD [21]: 4.4
158,CCN(CC)c1ccc(-c2nc3cc(C(=O)NCC4CC4)ccc3n2CCOC(C)(C)C)cn1,–
158,CCN(CC)c1ccc(-c2nc3cc(C(N)=O)ccc3n2CCOC(C)(C)C)cn1,–
126,COc1cccc2nc(-c3ccc(N4[C@@H](C)CC[C@@H]4C)nc3)n(C[C@@H]3CNCCO3)c12,clearance [22]: 35 mL/min/kg; chromatographic logD [21]: 4; Vd [23]: 6.3 L/kg; bioavailability [24]: 63%; half-life [25]: 5.1 h; AUC(0-t) [26]: 1600 ng·h/mL
126,CCN(CC)c1ccc(-c2nc3cc(C(=O)NC)ccc3n2Cc2ccn(CC)n2)cn1,Activity (COLO-320-HSR [27]): Dose-dependent effect; Activity (COLO-320-HSR [28]): Dose-dependent effect; Activity (COLO-320-HSR [29]): inactive; inhibition at 2 µM [30]: 50%
100,Cc1cccc2nc(-c3ccc(N4[C@@H](C)CC[C@@H]4C)nc3)n(Cc3ccn(C)n3)c12,solubility kinetic [20]: 309 µM; Papp [1]: 64 ×10⁻⁶ cm/s; chromatographic logD [21]: 7
79.4,COc1cc(C(N)=O)cc2nc(-c3ccc(N4[C@@H](C)CC[C@@H]4C)nc3)n(C[C@@H]3CN(C)CCO3)c12,–
79.4,COc1cccc2nc(-c3ccc(N4[C@@H](C)CC[C@@H]4C)nc3)n(C[C@@H]3CN(C)C[C@H](C)O3)c12,chromatographic logD [21]: 6.8
79.4,CCN(CC)c1ccc(-c2nc3cccc(OC)c3n2Cc2ccn(C)n2)cn1,–
63.1,COc1cc(C(N)=O)c(F)c2nc(-c3ccc(N4CCC[C@@H]4C)nc3)n(C[C@@H]3CN(C)CCO3)c12,fraction unbound [6]: 0.04; clearance [7]: 14 mL/min/kg; clearance [8]: 24 mL/min/kg; bioavailability [9]: 43%; AUC(0-inf) [10]: 4300 ng·h/mL; Cmax [11]: 500 ng/mL; Vd [12]: 0.88 L/kg; half-life [13]: 6.4 h; fraction unbound [14]: 0.03; AUC(0-inf) [15]: 1240 ng·h/mL; Cmax [16]: 380 ng/mL; Vd [17]: 2.5 L/kg; half-life [18]: 0.55 h; bioavailability [19]: 100%
63.1,CNC(=O)c1cc(OC)c2c(nc(-c3ccc(N4[C@@H](C)CC[C@@H]4C)nc3)n2C[C@@H]2CN(C)CCO2)c1F,fraction unbound [6]: 0.05; clearance [7]: 11 mL/min/kg; bioavailability [9]: 26%; AUC(0-inf) [10]: 3160 ng·h/mL; Cmax [11]: 180 ng/mL; half-life [13]: 4.3 h; fraction unbound [14]: 0.07; AUC(0-inf) [15]: 784 ng·h/mL; Cmax [16]: 205 ng/mL; Vd [17]: 2.8 L/kg; bioavailability [19]: 83%
25.1,COc1cccc2nc(-c3ccc(N4[C@@H](C)CC[C@@H]4C)nc3)n(Cc3ccn(C)n3)c12,half-life [3]: 1 h; clearance [4]: 190 mL/min/kg; Vd [5]: 6 L/kg
25.1,CCOCCn1c(-c2ccc(N3[C@@H](C)CC[C@@H]3C)nc2)nc2cccc(OC)c21,–
20,COc1cc(C(N)=O)c(F)c2nc(-c3ccc(N4[C@@H](C)CC[C@@H]4C)nc3)n(C[C@@H]3CN(C)CCO3)c12,–
